This is an account of results in patent publication US5380729A, “12-hetero substituted 6,11-ethano-6,11-dihydrobenzo (b) quinolizinium salts and compositions and method of use thereof” (Sterling Winthrop Inc., priority 1993, dated 1995).

One assay concerns PCP recognition sites. The assay can be described thus: [3H]TCP Radioreceptor Assay (internal screen). Conditions: @ 10 μM; rat whole brain membranes; room temperature, 25 min. Type of assay: binding, rat (male Sprague-Dawley. The method, then: [^3 H]TCP Radioreceptor Assay (internal screen)
[^3 H]TCP binding to PCP recognition sites was performed as described by Vignon et al. Brain Research 1983, 280, 194°197. Male Sprague-Dawley rats were sacrificed by decapitation, and whole brains were homogenized in 10 volumes (wt/vol) of cold Tris-HCl buffer (50 mM, pH 7.7) using a Brinkmann Polytron (setting 6, 30 sec). The homogenate was centrifuged at 40,000×g for 10 min at 4° C. The supernatant was decanted, and the homogenization and centrifugation steps were repeated twice as described above. Following this, the pellet was resuspended in Tris-HCl (5 mM, pH 7.7) at a tissue concentration of 0.5°0.75 g/ml, and one ml aliquots were frozen at -70° C. until use. The binding characteristics for PCP recognition sites were not altered by the freezing of membrane suspensions.
On the day of the assay, membrane aliquots were thawed, resuspended in fresh 5 mM Tris-HCl buffer at a tissue concentration of 1 mg/ml, and stored on ice until use. Each assay tube contained 100 μl of [^3 H]TCP at a final concentration of approximately 1 nM, 100 μl of various concentrations of the compounds of interest, 500 μl of the tissue suspension and 300 of buffer to a final assay volume of 1 ml and a final protein concentration of 0.5 mg/tube. Non-specific binding was defined by addition of a final concentration of 100 μM PCP to blank tubes. All tubes were incubated at room temperature for 25 min before termination of the reaction by rapid filtration over Whatman GF/B glass fiber filters that had been presoaked in a solution of 0.5% polyethylenimine for at least 1 hr prior to use. Filters were washed with three 4 ml volumes of cold Tris buffer. Following addition of scintillation cocktail, the amount of bound radioactivity was determined by liquid scintillation spectrometry using a Beckman LS 5000TA liquid scintillation counter with an efficiency for tritium of approximately 55% . Inhibition constants (Ki values) were calculated using the EBDA/LIGAND program (McPherson, J. Pharmacol. Meth. 1985, 14, 213-228), purchased from Elsevier/Biosoft, Inc. Results are reported as Ki values or as a percent (%) inhibition of binding at 10
As to `CC(=O)Oc1ccc(C(C)(C)C)c2c1C1[n+]3ccccc3C2C2(O[C@H](C)[C@@H](C)O2)C1(C)C` (stereo partly drawn) [Example 56, 6,11-ethano-12,12-(2R,3R-butanediolketal)-13,13-dimethyl-7-acetoxy-10-t-butyl-6,11-dihydrobenzo[b]quinolizinium perchlorate], the “Percent inhibition, [3H]TCP (internal screen)” value (“Percent inhibition, [3H]TCP” below) is 24%.

For `CCOC1(OCC)C2c3c(OC)ccc(OC)c3C([n+]3ccccc32)C1(C)C.[O-][Cl+3]([O-])([O-])[O-]` (stereo not shown) [Example 52, 6,11-ethano-12,12-diethoxy-13,13-dimethyl-7,10-dimethoxy-6,11-dihydrobenzo[b]quinolizinium perchlorate], the “Percent inhibition, [3H]TCP” value was 33%.

Consider `CC(=O)Oc1ccc(C(C)(C)C)c2c1C1[n+]3ccccc3C2C2(O[C@H](C)C[C@@H](C)O2)C1(C)C` (stereo partly drawn) [Example 57, 6,11-ethano-12,12-(2R,4R-pentanediolketal)-13,13-dimethyl-7-acetoxy-10-t-butyl-6,11-dihydrobenzo[b]quinolizinium perchlorate], for which the “Percent inhibition, [3H]TCP” value was 18%.

The assay is the same for the next values; noted with them: rat whole brain membranes; ~1 nM [3H]TCP; room temperature, 25 min.
Turning to `CCOC1(OCC)C2c3c(ccc4c3OCO4)C([n+]3ccccc32)C1(C)C.[O-][Cl+3]([O-])([O-])[O-]` (stereo not shown) [Example 31, 6,11-ethano-12,12-diethoxy-13,13-dimethyl-9,10-methylenedioxy-6,11-dihydrobenzo[b]quinolizinium perchlorate], the Ki is 7.42 nM.

`CCOC1(OCC)C2c3ccccc3C([n+]3cccc(OC)c32)C1(C)C.[O-][Cl+3]([O-])([O-])[O-]` (stereo not shown) [Example 33, 6,11-ethano-12,12-diethoxy-13,13-dimethyl-1-methoxy-6,11-dihydrobenzo-[b]quinolizinium perchlorate] registered a Ki of 25.8 nM.

As to `CCOC1(OCC)C2c3c(Br)cccc3C([n+]3ccccc32)C1(C)C` (stereo not shown) [Example 30, 6,11-ethano-12,12-diethoxy-13,13-dimethyl-10-bromo-6,11-dihydrobenzo[b]quinolizinium chloride], the affinity corresponds to a Ki of 107 nM.

Take `CCOC1(OCC)C2c3cc(Cl)ccc3C([n+]3ccccc32)C1(C)C.[O-][Cl+3]([O-])([O-])[O-]` (stereo not shown) [Example 26, 6,11-ethano-12,12-diethoxy-13,13-dimethyl-9-chloro-6,11-dihydrobenzo[b]quinolizinium perchlorate]: the Ki was 12.4 nM.

`CCOC1(OCC)C2c3ccccc3C(C1C)[n+]1ccccc12.[O-][Cl+3]([O-])([O-])[O-]` (stereo not shown) [63(d), 12,12-Diethoxy-13-methyl-6,11-ethano-6,11-dihydrobenzo[b]quinolizinium perchlorate] had a Ki of 49.3 nM.

Consider `CCOC1(OCC)C2c3ccccc3C(C1Br)[n+]1ccccc12.[O-][Cl+3]([O-])([O-])[O-]` (stereo not shown) [Example 36, 6,11-ethano-12,12-diethoxy-13-bromo-6,11-dihydrobenzo[b]quinolizinium perchlorate], for which the affinity, expressed as Ki, was 20.4 nM. Compared with the last compound, the Ki is about 2.4-fold lower.

`CCOC1(OCC)C2c3cc(C(F)(F)F)ccc3C([n+]3ccccc32)C1(C)C` (stereo not shown) [23(b), 6,11-ethano-12,12-diethoxy-13,13-dimethyl-9-trifluoromethyl-6,11-dihydrobenzo[b]quinolizinium chloride] came in with a Ki of 407 nM. Against the preceding compound, the Ki is about 20-fold higher.

On to `CCOC1(OCC)C2c3ccccc3C([n+]3ccccc32)C1(C)C` (single isomer, unassigned) [7(b), 12,12-diethoxy-13,13-dimethyl-6,11-ethano-6,11-dihydrobenzo[b]quinolizinium·-[(-)-DBT]], for which the inhibition constant Ki worked out at 14.1 nM.

Consider `CCOC1(OCC)C2c3c(F)cc(F)cc3C([n+]3ccccc32)C1(C)C` (stereo not shown) [24(b), 6,11-ethano-12,12-diethoxy-13,13-dimethyl-8,10-difluoro-6,11-dihydrobenzo-[b]quinolizinium chloride], for which the Ki worked out at 272 nM. Against the preceding compound, the Ki is about 19-fold higher.

Take `CCOC1(OCC)C2c3c(OC(C)=O)cccc3C([n+]3ccccc32)C1(C)C.[O-][Cl+3]([O-])([O-])[O-]` (stereo not shown) [15(a), 10-acetoxy-12,12-diethoxy-13,13-dimethyl-6,11-ethano-6,11-dihydrobenzo[b]quinolizinium perchlorate]: the affinity, expressed as Ki, was 26.4 nM. Against the preceding compound, the Ki is about 10-fold lower.

Compound `CCOC1(OCC)C2c3ccccc3C([n+]3ccccc32)C1(OCC)OCC` (stereo not shown) [Example 8, 12,12,13,13,-tetraethoxy-6,11-ethane-6,11-dihydrobenzo[b]quinolizinium perchlorate] showed an inhibitory constant (Ki) of 5180 nM.

`C[C@@H]1C[C@@H](C)OC2(O1)C1c3ccccc3C([n+]3ccccc31)C2(C)C` (stereo partly drawn) [Example 45, 6,11-ethano-12,12-(2R,4R-pentanediolketal)-13,13-dimethyl-6,11-dihydrobenzo[b]quinolizinium perchlorate] registered a Ki of 517 nM. Compared with the last compound, the Ki is about 10-fold lower.

In turn, `CCOC1(OCC)C2c3c(OC(C)C)cccc3C([n+]3ccccc32)C1(C)C` (stereo not shown) [34(b), 6,11-ethano-12,12-diethoxy-13,13-dimethyl-10-isopropoxy-6,11-dihydrobenzo[b]quinolizinium chloride] showed a Ki of 47.5 nM.

Consider `CCOC1(OCC)C2c3cc(OC)ccc3C([n+]3ccccc32)C1(C)C` (single isomer, unassigned) [20(c), 9-methoxy-12,12-diethoxy-13,13-dimethyl-6,11-ethano-6,11-dihydrobenzo[b]quinolizinium chloride], for which the Ki came to 7.05 nM. This Ki is about 6.7-fold lower than that of the compound before.

On to `CCOC1(OCC)C2c3cccc(C)c3C(C1C)[n+]1ccccc12.[O-][Cl+3]([O-])([O-])[O-]` (stereo not shown) [63(k), 7-Methyl-12,12-diethoxy-13-methyl-6,11-ethano-6,11-dihydrobenzo[b]quinolizinium perchlorate], for which the Ki was found to be 2460 nM. Against the preceding compound, the Ki is about 350-fold higher.

Compound `CCOC1(OCC)C2c3ccccc3C([n+]3ccccc32)C1(C)C` (stereo not shown) [Example 4, 12,12-diethoxy-13,13-dimethyl-6,11-ethano-6,11-dihydrobenzo[b]quinolizinium camphanate] had an inhibitory constant (Ki) of 5.66 nM.

On to `CCOC1(OCC)C2c3ccccc3C(C1Cl)[n+]1ccccc12` (single isomer, unassigned) [Example 42, 6,11-ethano-12,12-diethoxy-13-chloroquinolizinium perchlorate], for which the affinity corresponds to a Ki of 319 nM.

Regarding `CCOC1(OCC)C2c3c(C)cccc3C([n+]3ccccc32)C1(C)C.[O-][Cl+3]([O-])([O-])[O-]` (stereo not shown) [Example 47, 6,11-ethano-12,12-diethoxy-13,13-dimethyl-10-methyl-6,11-dihydrobenzo[b]quinolizinium perchlorate], the affinity corresponds to a Ki of 45.5 nM.

`CCN(CC)C1C2c3ccccc3C([n+]3ccccc32)C1(C)C` (stereo not shown) [Example 44, 6,11-ethano-12-(diethyl) amino-13,13-dimethyl-6,11-dihydrobenzo[b]quinolizinium diperchlorate] registered a Ki of 501 nM.

In the case of `CCOC1(OCC)C2c3ccc(OC)cc3C([n+]3ccccc32)C1(C)C` (stereo not shown) [25(b), 6,11-ethano-12,12-diethoxy-13,13-dimethyl-8-methoxy-6,11-dihydrobenzo[b]quinolizinium chloride], the affinity corresponds to a Ki of 147 nM.

`CCOC1(OCC)C2c3ccccc3C([n+]3ccccc32)C1(CC)CC` (stereo not shown) [17(c), 12,12-diethoxy-13,13-diethyl-6,11-ethano-6,11-dihydrobenzo[b]quinoliziniumperchlorate] showed a Ki of 10.6 nM.

For the compound `C[C@@H]1C[C@@H](C)OC2(O1)C1c3ccccc3C([n+]3ccccc31)C2(C)C` (single isomer, unassigned) [Example 10(b)], the Ki was found to be 614 nM. This Ki is about 58-fold higher than that of the compound before.

As for `C[C@@H]1C[C@@H](C)OC2(O1)C1c3ccccc3C([n+]3ccccc31)C2(C)C` (single isomer, unassigned) [Example 10(c)], the Ki is 365 nM. This Ki lies about 1.7-fold lower than the previous one.

`CCN(CC)C1C2c3ccccc3C(C1C)[n+]1ccccc12` (stereo not shown) [Example 62, 6,11-ethano-12-(diethyl) amino-13-methyl-6,11-dihydrobenzo[b]quinoliziniumperchlorate]: the Ki stood at 12200 nM.

In turn, `CCOC1(OCC)C2c3c(OC)cccc3C([n+]3ccccc32)C1(C)C` (stereo not shown) [19(b), 10-methoxy-12,12-diethoxy-13-13-dimethyl-6,11-ethano-6,11-dihydrobenzo[b]quinolizinium perchlorate] yielded a Ki of 13.2 nM. Against the preceding compound, the Ki is about 920-fold lower.

Compound “12,12-Diethylamino-13-phenyl-6,11-ethano-6,11-dihydrobenzo[b]quinolizinium perchlorate [63(j)]” displayed a Ki of 14400 nM.

On to `COC1(OC)C2c3ccccc3C([n+]3ccccc32)C1(C)C.[O-][Cl+3]([O-])([O-])[O-]` (stereo not shown) [63(m), 12,12-dimethoxy-13,13-dimethyl-6,11-ethano-6,11-dihydrobenzo[b]quinolizinium perchlorate], for which the affinity corresponds to a Ki of 111 nM.

`CC1(C)C2c3ccccc3C(c3cccc[n+]32)C12OCCO2` (stereo not shown) [Example 18, 12,..12-(1; 2-ethanediolketal)-13,13-dimethyl-6,11-ethano-6,11-dihydrobenzo[b]quinolizinium perchlorate]: the inhibitory constant (Ki) came to 4000 nM. Compared with the last compound, the Ki is about 36-fold higher.
